What was measured:
[1] = molecular target: Tie2 (Homo sapiens, UniProt Q02763); test: Tie2 ELISA assay (cellular Tie2 autophosphorylation, angiopoietin-2 stimulated); assay type: cell-based; design: expressed in transfected cells; host or cells: CHO (DHFR-deficient), stably transfected with Tie2; details: CHO cells stably transfected with Tie2, stimulated by angiopoietin-2; Tie2 autophosphorylation by sandwich-ELISA; read-out: Tie2 activity (assay 1)
Procedure: Assay 1: Tie2 ELISA Assay
Cellular activity of compounds of the present invention as inhibitors of Tie2 kinase activity was measured employing a Tie2 ELISA assay as described in the following paragraphs. Herein CHO cell-cultures, which are stably transfected by known techniques with Tie2 using DHFR deficiency as selection marker, are stimulated by angiopoietin-2. The specific autophosphorylation of Tie2 receptors is quantified with a sandwich-ELISA using anti-Tie2 antibodies for catch and anti-phosphotyrosine antibodies coupled to HRP for detection.
• 96well tissue culture plate, sterile, Greiner • 96well FluoroNunc plate MaxiSorp Surface C, Nunc • 96well plate polypropylene for compound dilution in DMSO • CHO Tie2/DHFR (transfected cells) • PBS−; PBS++, DMSO • MEM alpha Medium with Glutamax-I without Ribonucleosides and • Deoxyribonucleosides (Gibco #32561-029) • with 10% FCS after dialysis! and 1% PenStrep • Lysis buffer: 1 Tablet “Complete” protease inhibitor • 1 cap Vanadate (1 mL>40 mg/mL; working solution 2 mM) • ad 50 mL with Duschl-Puffer • pH 7.6 • Anti-Tie2-antibody 1: 425 in Coating Buffer pH 9.6 • Stock solution: 1.275 mg/mL>working.: 3 μg/mL • PBST: 2 bottles PBS(10×)+10 ml Tween, fill up with VE-water • RotiBlock 1: 10 in VE-water • Anti-Phosphotyrosine HRP-Conjugated 1: 10000 in 3% TopBlock • 3% TopBlock in PBST • BM Chemiluminescence ELISA Substrate (POD) • solution B 1: 100 solution A • SF9 cell culture medium • Ang2-Fc in SF9 cell culture medium Cell Experiment: • Dispense 5×10^4 cells/well/98 μL in 96well tissue culture plate • Incubate at 37° C./5% CO2 • After 24 h add compounds according to desired concentrations • Add also to control and stimulated values without compounds 2 μL DMSO • And mix for a few min at room temperature • Add 100 μL Ang2-Fc to all wells except control, which receives insect medium • Incubate 20 min at 37° C. • Wash 3× with PBS++ • Add 100 μl Lysis buffer/well and shake a couple of min at room temperature • Store lysates at […] before utilizing for the ELISA Performance of Sandwich-ELISA • Coat 96well FluoroNunc Plate MaxiSorp Surface C with anti-Tie2 mAb 1: 425 in Coating buffer pH 9.6; 100 μL/well overnight at 4° C. • Wash 2× with PBST • Block plates with 250 μL/well RotiBlock 1: 10 in VE-water • Incubate for 2 h at room temperature or overnight at 4° C. shaking • Wash 2× in PBST • Add thawed lysates to wells and incubate overnight shaking at 4° C. • Wash 2× with PBST • Add 100 μL/well anti-Phosphotyrosine HRP-Conjugated 1:10000 in 3% TopBlock (3% TopBlock in PBST) and incubate overnight under shaking • Wash 6× with PBST • Add 100 μL/well BM Chemiluminescence ELISA Substrate (POD) • solutions 1 und 2 (1:100) • Determine luminescence with the LumiCount. Assay 2: Tie-2-Kinase HTRF-Assay without kinase preactivation

[2] = molecular target: T1, CDK2/CycE (Homo sapiens, UniProt P24941); test: CDK2/Cyclin E Kinase Assay; assay type: biochemical; details: CDK2/CycE HTRF, 10 μM ATP; read-out: CDK2 activity (assay 6)
T1 construct: GST; purchased ProQinase GmbH (Freiburg, Germany); host or cells: insect cells (Sf9)
Description: Assay 6: CDK2/Cyclin E Kinase Assay
CDK2/CyclinE—inhibitory activity of compounds of the present invention was quantified employing the CDK2/CycE HTRF assay as described in the following paragraphs.
Recombinant fusion proteins of GST and human CDK2 and of GST and human CycE, expressed in insect cells (Sf9) and purified by Glutathion-Sepharose affinity chromatography, were purchase from ProQinase GmbH (Freiburg, Germany). As substrate for the kinase reaction biotinylated peptide biotin-Ttds-YISPLKSPYKISEG (C-terminus in amid form) was used which can be purchased e.g. form the company JERINI peptide technologies (Berlin, Germany).
CDK2/CycE was incubated for 60 min at 22° C. in the presence of different concentrations of test compounds in 5 μl assay buffer [50 mM Tris/HCl pH 8.0, 10 mM MgCl2, 1.0 mM dithiothreitol, 0.1 mM sodium ortho-vanadate, 10 μM adenosine-tri-phosphate (ATP), 0.75 μM substrate, 0.01% (v/v) Nonidet-P40 (Sigma), 1% (v/v) dimethylsulfoxide]. The concentration of CDK2/CycE was adjusted depending of the activity of the enzyme lot and was chosen appropriate to have the assay in the linear range, typical concentrations were in the range of 1 ng/ml. The reaction was stopped by the addition of 5 μl of a solution of HTRF detection reagents (0.2 μM streptavidine-XLent and 3.4 nM Phospho-(Ser) CDKs Substrate Antibody [product #2324B, Cell Signaling Technology, Danvers, Mass., USA} and 4 nM Prot-A-EuK [Protein A labeled with Europium Cryptate from Cis biointernational, France, product no. 61PRAKLB]) in an aqueous EDTA-solution (100 mM EDTA, 800 mM KF, 0.2% (w/v) bovine serum albumin in 100 mM HEPES/NaOH pH 7.0).
The resulting mixture was incubated 1 h at 22° C. to allow the formation of complex between the phosphorylated biotinylated peptide and the detection reagents. Subsequently the amount of phosphorylated substrate was evaluated by measurement of the resonance energy transfer from the Prot-A-EuK to the streptavidine-XLent. Therefore, the fluorescence emissions at 620 nm and 665 nm after excitation at 350 nm was measured in a HTRF reader, e.g. a Rubystar (BMG Labtechnologies, Offenburg, Germany) or a Viewlux (Perkin-Elmer). The ratio of the emissions at 665 nm and at […] was taken as the measure for the amount of phosphorylated substrate. The data were normalised (enzyme reaction without inhibitor=0% inhibition, all other assay components but no enzyme=100% inhibition) and IC50 values were calculated by a 4 parameter fit using an inhouse software.

Chain of Tie2 (Q02763 23-1124): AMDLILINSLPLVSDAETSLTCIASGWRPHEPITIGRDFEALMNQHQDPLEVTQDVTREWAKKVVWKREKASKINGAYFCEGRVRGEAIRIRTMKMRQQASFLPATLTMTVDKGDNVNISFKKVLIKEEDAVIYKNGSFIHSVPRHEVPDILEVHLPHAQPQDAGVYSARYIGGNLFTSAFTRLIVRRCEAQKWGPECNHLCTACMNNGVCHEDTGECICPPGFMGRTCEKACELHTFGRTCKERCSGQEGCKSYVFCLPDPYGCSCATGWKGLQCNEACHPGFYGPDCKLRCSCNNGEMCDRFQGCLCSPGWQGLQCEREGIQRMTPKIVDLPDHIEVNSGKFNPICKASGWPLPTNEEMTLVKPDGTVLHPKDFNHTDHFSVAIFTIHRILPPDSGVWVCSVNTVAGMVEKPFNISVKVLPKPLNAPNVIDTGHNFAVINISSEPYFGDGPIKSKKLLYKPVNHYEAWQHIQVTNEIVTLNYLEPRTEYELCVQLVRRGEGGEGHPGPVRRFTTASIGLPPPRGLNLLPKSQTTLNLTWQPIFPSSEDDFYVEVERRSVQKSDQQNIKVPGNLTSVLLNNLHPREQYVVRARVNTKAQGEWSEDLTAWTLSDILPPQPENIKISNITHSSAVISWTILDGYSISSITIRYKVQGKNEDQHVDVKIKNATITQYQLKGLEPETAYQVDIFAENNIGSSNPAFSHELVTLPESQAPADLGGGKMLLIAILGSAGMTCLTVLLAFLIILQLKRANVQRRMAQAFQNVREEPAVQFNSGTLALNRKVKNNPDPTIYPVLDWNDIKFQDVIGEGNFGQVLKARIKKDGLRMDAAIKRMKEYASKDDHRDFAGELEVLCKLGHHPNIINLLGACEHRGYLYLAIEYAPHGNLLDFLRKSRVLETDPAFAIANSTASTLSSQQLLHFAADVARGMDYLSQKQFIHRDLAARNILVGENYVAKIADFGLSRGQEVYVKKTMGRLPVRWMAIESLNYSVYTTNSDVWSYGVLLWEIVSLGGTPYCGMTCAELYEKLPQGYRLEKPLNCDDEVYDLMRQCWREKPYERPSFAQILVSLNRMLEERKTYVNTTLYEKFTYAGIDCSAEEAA

| SMILES | IC50 [1] | IC50 [2] |
| --- | --- | --- |
| C[C@H](CO)Nc1nc(Nc2ccc(S(C)(=N)=O)cc2)ncc1C#Cc1ccccc1 (mixture of isomers) [Example 1.2, (RS)-S-(4-[4-((R)-2-Hydroxy-1-methyl-ethylamino)-5-(phenylethynyl)-pyrimidin-2-ylamino]-phenyl)-S-methylsulfoximide] | < 0.5 µM | > 10 µM |
| Cc1ccc(C#Cc2cnc(Nc3ccc(S(C)(=N)=O)cc3)nc2N[C@H](C)CO)cc1 (mixture of isomers) [Example 1.5] | < 0.5 µM | 1 to 10 µM |
| CC(C)NC(=O)N=S(C)(=O)c1cccc(Nc2ncc(C#Cc3cccc(O)c3)c(N[C@H](C)CO)n2)c1 (mixture of isomers) [Example 1.15, (RS)-S-(3-[4-((R)-2-Hydroxy-1-methyl-ethylamino)-5-(3-hydroxy-phenylethynyl)-pyrimidin-2-ylamino]-phenyl)-N-(isopropylcarbamoyl)-S-methylsulfoximide] | < 0.5 µM | 1 to 10 µM |
| CCNc1nc(Nc2ccc(S(C)(=N)=O)cc2)ncc1C#Cc1ccc(OC)cc1 (racemic) [Example 1.26, (RS)-S-(4-[4-ethylamino-5-(4-methoxy-phenyl-ethynyl)-pyrimidin-2-ylamino]-phenyl)-S-methylsulfoximide] | < 0.5 µM | > 10 µM |
| C[C@H](CO)Nc1nc(Nc2cccc(S(C)(=N)=O)c2)ncc1C#Cc1cccc(O)c1 (mixture of isomers) [Example 1.18, (RS)-S-(3-[4-((R)-2-Hydroxy-1-methyl-ethylamino)-5-(3-hydroxy-phenylethynyl)-pyrimidin-2-ylamino]-phenyl)-S-methylsulfoximide] | < 0.5 µM | 1 to 10 µM |
| COc1ccc(C#Cc2cnc(Nc3ccc(S(C)(=N)=O)cc3)nc2N[C@H](C)CO)cc1 (mixture of isomers) [Example 1.1, (RS)—S-(4-[4-((R)-2-Hydroxy-1-methyl-ethylamino)-5-(4-methoxy-phenylethynyl)-pyrimidin-2-ylamino]-phenyl)-S-methylsulfoximide] | < 0.5 µM | > 10 µM |
| CCOC(=O)N=S(C)(=O)c1ccc(Nc2ncc(C#Cc3cccc(O)c3)c(N[C@H](C)CO)n2)cc1 (mixture of isomers) [Example 2.7] | < 0.5 µM | 1 to 10 µM |
| Cc1ccccc1C#Cc1cnc(Nc2ccc(S(C)(=N)=O)cc2)nc1N[C@H](C)CO (mixture of isomers) [Example 1.3] | < 0.5 µM | 1 to 10 µM |
| CCc1ccc(C#Cc2cnc(Nc3ccc(S(C)(=N)=O)cc3)nc2N[C@H](C)CO)cc1 (mixture of isomers) [Example 1.8, (RS)-S-(4-[5-(4-Ethyl-phenylethynyl)-4-((R)-2-hydroxy-1-methyl-ethylamino)-pyrimidin-2-ylamino]-phenyl)-S-methylsulfoximide] | < 0.5 µM | > 10 µM |
| CS(=N)(=O)c1cccc(Nc2ncc(C#Cc3cccc(O)c3)cn2)c1 (racemic) [Example 4.2, (RS)—S-(3-[5-(3-hydroxy-phenylethynyl)-pyrimidin-2-ylamino]-phenyl)-S-methylsulfoximide] | < 0.5 µM | > 10 µM |

Continued, values first:

| IC50 [1] | IC50 [2] | SMILES |
| --- | --- | --- |
| < 0.5 µM |  | Cc1ccccc1C#Cc1cnc(Nc2cccc(S(C)(=N)=O)c2)nc1N[C@H](C)CO (mixture of isomers) [Example 1.19, (RS)-S-(3-[4-((R)-2-Hydroxy-1-methyl-ethylamino)-5-(2-methyl-phenylethynyl)-pyrimidin-2-ylamino]-phenyl)-S-methylsulfoximide] |
| < 0.5 µM | > 10 µM | Cc1cc(C#Cc2cnc(Nc3ccc(S(C)(=N)=O)cc3)nc2N[C@H](C)CO)ccc1F (mixture of isomers) [Example 1.13, (RS)-S-(4-[5-(4-Fluoro-3-methyl-phenyl-ethynyl)-4-((R)-2-hydroxy-1-methyl-ethylamino)-pyrimidin-2-ylamino]-phenyl)-S-methylsulfoximide] |
| < 0.5 µM | > 10 µM | C[C@H](CO)Nc1nc(Nc2ccc(S(C)(=N)=O)cc2)ncc1C#Cc1ccc(F)cc1 (mixture of isomers) [Example 1.9, (RS)-S-(4-[5-(4-Fluoro-phenyl-ethynyl)-4-((R)-2-hydroxy-1-methyl-ethylamino)-pyrimidin-2-ylamino]-phenyl)-S-methylsulfoximide] |
| < 0.5 µM |  | Cc1cc(C#Cc2cnc(Nc3cccc(S(C)(=N)=O)c3)nc2N[C@H](C)CO)ccc1F (mixture of isomers) [Example 1.20, (RS)-S-(3-[5-(4-Fluoro-3-methyl-phenyl-ethynyl)-4-((R)-2-hydroxy-1-methyl-ethylamino)-pyrimidin-2-ylamino]-phenyl)-S-methylsulfoximide] |
| < 0.5 µM | > 10 µM | COc1ccc(C#Cc2cnc(Nc3cccc(S(C)(=N)=O)c3)nc2N[C@H](C)CO)cc1 (mixture of isomers) [Example 1.17, (RS)-S-(3-[4-((R)-2-Hydroxy-1-methyl-ethylamino)-5-(4-methoxy-phenylethynyl)-pyrimidin-2-ylamino]-phenyl)-S-methylsulfoximide] |
| < 0.5 µM | > 10 µM | CCNc1nc(Nc2ccc(S(C)(=N)=O)cc2)ncc1C#Cc1ccc(F)c(C)c1 (racemic) [Example 1.24, (RS)-S-(4-[4-ethylamino-5-(4-fluoro-3-methyl-phenyl-ethynyl)-pyrimidin-2-ylamino]-phenyl)-S-methylsulfoximide] |

Reference: patent US8642611B2, “Alkynylpyrimidines and salts thereof, pharmaceutical compositions comprising same, methods of preparing same and uses of same” (Bayer Intellectual Property GmbH, priority 2007, dated 2014)
